One substance from patent US20110191867A1 can be followed below.

The subject of this assay is serum antibodies of test subjects.

For the substance “Biotin-aminocaproyl-CRSKVNGQCG-NH4 [Peptide 2C]”, the serum reactions entry is listed as “Strongest reactivities”.
